Experiments:
Type in all cases: cell-based
mouse sperm [1] = assay: Ability of mouse sperm to fertilize oocytes after incubation in capacitation medium (in vitro fertilization, 2-cell embryos); details: vs control; for percentage of 2-cell embryos vs mature MII oocytes at 24 h post fertilization: 12 hours incubation prior fertilization; for percentage of 2-cell embryos vs mature oocytes at 48 h post fertilization: 5 μM clofilium in M16-BSA medium
Method: Mouse sperm was obtained by manual trituration of caudae epididymides from male and were allowed to swim in M2 medium (from Sigma) for 10 minutes. The M2 medium composition in g/L is as follows: CaCl2 0.25; MgSO4 (anhydrous) 0.1649; KCl 0.35635; K2HPO4 0.162; NaHCO3 0.35; NaCl 5.53193; Albumin, Bovine Fraction V 4.0; D-Glucose 1.0; HEPES (for 4-(2-HydroxyEthyl)-1-Piperazine EthaneSulfonic acid)×Na 5.42726; Pyruvic Acid×Na 0.0363; DL-Lactic Acid×Na 2.95). Sperm were then capacitated in M16 medium (from Sigma) with 2% fatty acid-free BSA (for Bovine Serum Albumin) (named “M16-BSA medium”) at 37° C. in a 5% v/v CO2 incubator for different times as specified. M16 medium is a commercial and commonly used medium for in vitro fertilization and culture of preimplantation stage embryos. Oocytes were collected from mature OF1 females, synchronized with 5 units of pregnant mare serum gonadotrophin (PMSG) and 5 units of human chorionic gonadotrophin (HCG). Cumulus were harvested directly from the ampulla and sperm were injected into the M16 droplets containing the cumulus. 1. The first test related to the ability of mouse sperm to fertilize oocytes when incubated prior fertilization in a capacitation medium containing clofilium with regard to a control medium, which is the same capacitation medium but without clofilium. The capacitation medium was M16-BSA medium. The control medium was the M16-BSA medium containing the sperm. It was compared to the same medium further including clofilium at a concentration of 5 μM (in the M16-BSA medium containing the sperm). Sperm was incubated in M16-BSA medium with or without clofilium and then added to M16 droplets containing the cumulus comprising the oocytes. Two-cell embryos were counted at 48 h post insemination (n=3). The number of oocytes reaching the two-cell stage were counted at 48 hours after fertilization. Two different concentrations of clofilium were tested: 0.2 μM of clofilium and 5 μM of clofilium (in the M16-BSA medium containing the sperm). The sperm incubation time prior fertilization was 12 hours. The test related to the ability of mouse sperm to fertilize oocytes, sperm being incubated prior fertilization in a medium containing quinidine with regard to a control medium, without quinidine. The control medium was the M16-BSA medium containing the sperm (“control”). It was compared to the same medium further including quinidine, at various concentrations 5 μM quinidine (“5 μM quinidine”), 10 μM quinidine (“10 μM quinidine”), 25 μM quinidine (“25 μM quinidine”) and 100 μM quinidine (“100 μM quinidine”).

mouse sperm [2] = assay: Mouse sperm motility by CASA analysis (VCL) after 12 h capacitation; details: 0.2 μM clofilium, 12 h capacitation in M16-BSA medium at 37° C., vs control
Method: 3. The viability of mouse sperm was determined by the measurement of the sperm motility. The motility analysis was performed using Computer Assisted Semen Analysis (CASA analysis). The CASA analysis was always performed in the examples using a CEROS™, Hamilton Thorne Bioscience, USA. VCL was thus measured. As known to the skilled person, VCL (for Curvilinear Velocity) is the average velocity of the sperm head through its real path. For this analysis, samples were diluted at 0.1 10^6/mL. The diluted sample was incubated for 12 hours at 37° C. in a capacitation medium of M16-BSA medium, with or without 0.2 μM clofilium. For the CASA measurement, 10 μL of the sample were placed on a 2X-CEL Slides, […], Leja Products B.V.,Netherlands, placed on the heating stage (37° C.) of the CEROS ™. A total of 10 automatically selected fields were analyzed.

bovine sperm = assay: In vitro fertilization with bovine sperm frozen with clofilium, washed or not washed after thawing; details: bovine sperm frozen with 0.2 μM clofilium, vs control
Method: In order to be as close as possible of the possible field usage, sperm were frozen with clofilium prior to test their ability to improve fertilization. Two conditions were tested: in the first one, clofilium was present during the sperm incubation period, and in the second one, sperm was washed to remove clofilium in order to mimic the condition that may occur in the female reproductive tract. Straws containing clofilium were obtained as described below. Bovine ejaculate was split into two fractions, and diluted 1:1 in either Optixcell (Fraction 1) or Optixcell containing clofilium 0.2 μM (Fraction 2). After 10 minutes of 34° C. incubation, semen was then diluted to a final concentration of 57 million of spermatozoa/ml in Optixcell (Fraction 1) or Optixcell containing clofilium 0.2 μM (Fraction 2). Diluted semen was frozen as described above and stored in liquid nitrogen until in vitro fertilization. Two types of straws were used: control straws and straws containing clofilium. For straws containing clofilium, two conditions were tested: washed and not washed. The wash medium is a commonly used medium, sp-TALP, for bovine sperm handling and which composition is described above. For “not washed” conditions, sperm were incubated with sp-TALP containing 0.2 μM clofilium. […]

CCCCCCC[N+](CC)(CC)CCCCc1ccc(Cl)cc1 [clofilium]
percentage of 2-cell embryos vs mature MII oocytes at 24 h post fertilization (mouse sperm [1]; 0.2 μM clofilium): improves the mouse in vitro fertilization outcome
percentage of 2-cell embryos vs mature oocytes at 48 h post fertilization (mouse sperm [1]; 3 h incubation period prior fertilization): not significantly different than that of control
percentage of 2-cell embryos vs mature oocytes at 48 h post fertilization (mouse sperm [1]; long incubation periods (>3 hours) prior fertilization): higher number of 2-cell stages than what was observed with the control
percentage of 2-cell embryos vs mature oocytes at 48 h post fertilization (mouse sperm [1]; short incubation periods (<3 hours) prior fertilization): positive effect
percentage of 2-cell embryos vs mature MII oocytes at 24 h post fertilization (mouse sperm [1]; 5 μM clofilium): potent
motility of sperm (in terms of VCL) (mouse sperm [2]): higher velocity than the “control”
percentage of 2-cell embryos vs matured oocytes at 24 h post fertilization (bovine sperm; not washed (clofilium present in sp-TALP), up to 48 h incubation): positive effect on embryo outcome lasted 48 hours
percentage of 2-cell embryos vs matured oocytes at 24 h post fertilization (bovine sperm; washed clofilium, 24 h incubation in sp-TALP): positive effect at 24 hours is still present, although lower
percentage of 2-cell embryos vs matured oocytes at 24 h post fertilization (bovine sperm; washed clofilium, 48 h incubation in sp-TALP): the effect is no longer present

From US20230292743A1, “Method for increasing the lifespan and motility of animal sperm using an inhibitor of Slo3 potassium channel” (IMV TECHNOLOGIES, priority 2017, published 2023)
